{
  "source": "patent US5360794A",
  "about": "“Disubstituted and deoxy disubstituted derivatives of α-D-mannofuranosides and β-L-gulofuranosides having anti-inflammatory and anti-proliferative activity” (Medicarb Inc., priority 1992, dated 1994)",
  "key": {"[1]": {"system": "T-lymphocytes (BALB/cBYJ responder spleen cells with mitomycin C treated C57BL/6J stimulator spleen cells)", "experiment": "Mixed lymphocyte response (MLR)", "format": "cell-based, mouse", "conditions": "estimated IC50, 5 days at 37° C., MTT, 1, 10, 30, 100, and 300 μM", "source_text": "i Mixed lymphocyte response (MLR).\n(§1) The MLR assay measures the effects of a study compound on the activation and antigen presentation of T-lymphocytes, therefore determining immunomodulatory properties. The mouse spleen cell mitogen-induced blastogenesis and the BUD-8 human fibroblast proliferation assays measure the effects of the compounds of the present invention on cellular proliferation of cells involved in the pathogenesis of autoimmune diseases. These two assays are appropriate as screens to ascertain anti-inflammatory and/or autoimmune beneficial activity and are art accepted for such purposes.\nThe MLR is a classical assay used to measure T cell function by studying the proliferation response of T cells which are activated in vitro by genetically disparate stimulator cells. This is accomplished by co-culturing spleen cells from two different strains of mice. Splenic T cell proliferation occurs as a result of cellular activation signals generated by the ongoing cellular interactions.\nIn performing MLR assays, BALB/cBYJ mice were euthanized by cervical dislocation and their spleens removed. Single cell suspensions were prepared in culture medium (RPMI-1640 with hepes supplemented with 10% calf serum, 2 mM glutamine, 500 units penicillin/streptomycin, and 4×10^-5 M 2-mercaptoethanol) using a Teflon pestle. The cells were centrifuged at 1500 RPM and the pellets resuspended in ACT (0.15M Tris, 0.14M ammonium chloride, pH 7.2) in order to lyse the red blood cells. After a 5 minute incubation at 37° C. in a waterbath, the cells were washed and resuspended in culture medium. The splenic lymphocytes were counted. C57BL/6J spleen cells, which were used as stimulator cells, were prepared in the same way. The stimulator cells were treated with 50 μg/ml of mitomycin C for 20 minutes at 37° C., then washed five times in culture medium. The proliferative response were measured by culturing 5×10^5 responder spleen cells with […] in 96-well microtiter plates in the presence or absence of test article or vehicle (DMSO). Syngeneic control cultures using mitomycin C treated normal BALB/c spleen cells as the stimulator cells were also run. All cultures were run in triplicate.\nSolutions of compounds of the present invention in DMSO were prepared at a stock concentration of 300 mM. Solutions were made in a culture medium to a concentration of 1, 10, 30, 100, and 300 μM. The vehicle DMSO was used as a negative control.\nAfter incubation for 5 days at 37° C. with 5% carbon dioxide, the amount of cell proliferation was measured by adding 20 μl of MTT (10 mg/ml in PBS) (3-[4,5-dimethylthiazol-2-yl]-2,5-diphenyl-tetrazolium bromide) to each well. Plates were incubated for 4 hours at 37° C., after which 180 μl of supernatant was removed and 180 μl of 10% SDS in PBS was added. After an overnight incubation, the optical density (OD) of each well was read on a Molecular Devices microplate reader at 570-650 nm.\nThe results were determined by calculating the difference between the means of the allogeneic cultures and the means of the syngeneic cultures for each test compound concentration. Differences of the test article groups were compared to the difference of the control group. The percent change from the control was determined and an IC50 estimated. The criteria used to establish activity levels were:\nSixteen (16) novel compounds were assayed for their ability to modulate a Mixed Lymphocyte Response in vitro. The test compounds were added to MLR cultures to give final concentrations of 1, 10, 30, 100, and 300 μM. The responses observed in the test article treated wells were compared to the control wells. […] Based on the estimated IC50, all the test compounds were strong inhibitors of the MLR."}, "[2]": {"system": "BUD-8 human skin fibroblast cells", "experiment": "BUD-8 human cell line fibroblast proliferation assay", "format": "cell-based", "conditions": "estimated IC50, BUD-8 cells, 3 days, MTT", "source_text": "ii BUD-8 human cell line fibroblast proliferation assay.\nas §1\nThe skin cell fibroblast line, BUD-8, was originally derived from the normal skin of a person and can now be obtained from the American Type Culture Collection, Rockville, Md. The concentration of the compounds which were used in this assay were: 1, 10, 30, 100, and 300 μM. The vehicle was used as the negative control. Test compounds were prepared in DMSO at a stock concentration of 300 mM. Appropriate dilutions were made in culture medium.\nIn this assay BUD-8 cells were collected, counted, and diluted to 2×10^4 cells/ml. 0.1 ml was plated per well to give 2×10^3 cells/well. The compounds of the present invention were diluted in culture medium to the appropriate concentrations. Aliquates of 100 μl were distributed to triplicate wells. Control wells with vehicle and wells with media were also run. After a three day incubation at 37° C. with 5% carbon dioxide, proliferation was measured by adding 20 μl of MTT (10 mg/ml in PBS) (3-[4,5-dimethyl thiazol-2-yl]-2,5-diphenyl-tetrazolium bromide) to each well. Plates were incubated for 4 hours at 37° C., after which 180 μl of 10% SDS in PBS were added. After an overnight incubation, the optical density (OD) of each well was read using a Molecular Devices microplate reader at 570-650 nm.\nDuplicate cultures were also set up to measure viability. After 3 days of incubation, supernatants were assayed for lactate dehydrogenase (LDH) activity to determine the viability of the cells, which is an indication of the toxicity of the test article on the BUD-8 cells. 0.1 ml of supernatent was mixed with 0.1 ml of the LDH substrate mixture which contains 5.4×10^-2 M L(+) lactate, 6.6×10^-4 M 2-p-iodophenyl-3-p-nitrophenyl tetrazolium chloride, 2.8×10^-4 M phenazine methosulfate, 1.3×10^-3 M NAD, and 0.2M Tris buffer. pH 8.2. Plates were read immediately for 5 minutes at 490 nm using a Molecular Devices microplate reader.\nThe mean for each test article treated group was determined and compared to the mean of the control group. The percent change from the control was calculated, and the IC50 estimated. The criteria used to establish activity levels were:\nSixteen (16) test articles were assayed for their ability to inhibit fibroblast proliferation. The test article were added to BUD-8 cell cultures to give final concentrations of 1, 10, 30, 100, and 300 μM. The proliferation observed in the test article treated wells were compared to the DMSO control wells."}, "[3]": {"conditions": "Mus musculus, T-lymphocyte, 120 h"}, "[4]": {"conditions": "Homo sapiens, Skin fibroblast, 72 h"}},
  "data": [
    {"compound": "CCCCCCCCCOCCCO[C@H]1O[C@H]([C@H](O)CN2CCCC2)[C@@H]2OC(C)(C)O[C@H]12", "note": "[Compound 3, n-Nonyloxypropyl 2,3-O-(1-methylethylidene)-6-deoxy-pyrrolidinyl-α-D-mannofuranoside]", "values": [
      {"measurement": "IC50", "setting": "[1]; [3]", "value": "< 1", "unit": "µM"},
      {"measurement": "IC50", "setting": "[2]; [4]", "value": 18, "unit": "µM"}
    ]},
    {"compound": "CCCCCCCCCOCCCO[C@H]1O[C@H]([C@H](O)CN2CCCCC2)[C@@H]2OC(C)(C)O[C@H]12", "note": "[Compound 4, n-Nonyloxypropyl 2,3-O-(1-methylethylidene)-6-deoxy-6-piperidinyl-α-D-mannofuranoside]", "values": [
      {"measurement": "IC50", "setting": "[1]; [3]", "value": 27, "unit": "µM"},
      {"measurement": "IC50", "setting": "[2]; [4]", "value": 35, "unit": "µM"}
    ]},
    {"compound": "CCCCCCCCCOCCCO[C@H]1O[C@H]([C@H](O)CN2CCOCC2)[C@@H]2OC(C)(C)O[C@H]12", "note": "[Compound 5, n-Nonyloxypropyl 2,3-O-(1-methylethylidene)-6-deoxy-6-morpholinyl-α-D-mannofuranoside]", "values": [
      {"measurement": "IC50", "setting": "[1]; [3]", "value": 19, "unit": "µM"},
      {"measurement": "IC50", "setting": "[2]; [4]", "value": "> 200", "unit": "µM"}
    ]},
    {"compound": "CCCCCCCCCOCCCO[C@H]1O[C@H]([C@H](O)CN2CCCCCC2)[C@@H]2OC(C)(C)O[C@H]12", "note": "[Compound 6, n-Nonyloxypropyl 2,3-O-(1-methylethylidene)-6-deoxy-6-hexamethyleneimino-α-D-mannofuranoside]", "values": [
      {"measurement": "IC50", "setting": "[1]; [3]", "value": "< 0.5", "unit": "µM"},
      {"measurement": "IC50", "setting": "[2]; [4]", "value": 38, "unit": "µM"}
    ]},
    {"compound": "CCCCCCCCCOCCCO[C@H]1O[C@H]([C@H](O)CNCCCCCCC)[C@@H]2OC(C)(C)O[C@H]12", "note": "[Compound 8, n-Nonyloxypropyl 2,3-(1-methylethylidene)-6-deoxy-6-aminoheptyl-α-D-mannofuranoside]", "values": [
      {"measurement": "IC50", "setting": "[1]; [3]", "value": "< 1", "unit": "µM"},
      {"measurement": "IC50", "setting": "[2]; [4]", "value": 16, "unit": "µM"}
    ]},
    {"compound": "CCCCCCCCCOCCCO[C@H]1O[C@H]([C@@H](C)OCCCN(C)C)[C@@H]2OC(C)(C)O[C@H]12", "note": "[Compound 10, n-Nonyloxypropyl 2,3-O-(1-methylethylidene)-6-deoxy-5-O-(N,N-dimethylaminopropyl)-α-D-mannofuranoside]", "values": [
      {"measurement": "IC50", "setting": "[1]; [3]", "value": "< 1", "unit": "µM"},
      {"measurement": "IC50", "setting": "[2]; [4]", "value": 17, "unit": "µM"}
    ]},
    {"compound": "CCCCCCCCCOCCCO[C@H]1O[C@H]([C@@H](C)OCCN2CCCC2)[C@@H]2OC(C)(C)O[C@H]12", "note": "[Compound 12, n-Nonyloxypropyl 2,3-O-(1-methylethylidene)-6-deoxy-5-O-(N'-ethylpyrrolidinyl)-α-D-mannofuranoside]", "values": [
      {"measurement": "IC50", "setting": "[1]; [3]", "value": "< 0.5", "unit": "µM"},
      {"measurement": "IC50", "setting": "[2]; [4]", "value": 42, "unit": "µM"}
    ]},
    {"compound": "CCCCCCCCCOCCCO[C@H]1O[C@H]([C@H](C)N2CCCC2)[C@@H]2OC(C)(C)O[C@H]12", "note": "[Compound 15, n-Nonyloxypropyl 5,6-dideoxy-2,3-O-(1-methylethylidene)-5-pyrrolidinyl-β-L-gulofuranoside]", "values": [
      {"measurement": "IC50", "setting": "[1]; [3]", "value": 0.99, "unit": "µM"},
      {"measurement": "IC50", "setting": "[2]; [4]", "value": 170, "unit": "µM"}
    ]},
    {"compound": "CC1(C)O[C@@H]2[C@H](O1)[C@@H](OCCCc1ccccc1)O[C@@H]2[C@H](O)CN1CCCC1", "note": "[Compound 20, Phenylpropyl 6-deoxy 2,3-O-(1-methylethylidene)-6-pyrrolidinyl-α-D-mannofuranoside]", "values": [
      {"measurement": "IC50", "setting": "[1]; [3]", "value": "< 1", "unit": "µM"},
      {"measurement": "IC50", "setting": "[2]; [4]", "value": "> 300", "unit": "µM"}
    ]},
    {"compound": "CCCCCCCNC[C@@H](O)[C@H]1O[C@H](OCCCc2ccccc2)[C@H]2OC(C)(C)O[C@H]21", "note": "[Compound 21, Phenylpropyl 6-deoxy 2,3-O-(1-methylethylidene)-6-heptylamino-α-D-mannofuranoside]", "values": [
      {"measurement": "IC50", "setting": "[1]; [3]", "value": "< 1", "unit": "µM"},
      {"measurement": "IC50", "setting": "[2]; [4]", "value": 19, "unit": "µM"}
    ]},
    {"compound": "CC1(C)O[C@@H]2[C@H](O1)[C@@H](OCCCc1ccccc1)O[C@@H]2[C@H](O)CNCCCN1CCCC1", "note": "[Compound 22, Phenylpropyl 6-deoxy 2,3-O-(1-methylethylidene)-6-aminopropylpyrrolidinyl-α-D-mannofuranoside]", "values": [
      {"measurement": "IC50", "setting": "[1]; [3]", "value": 0.85, "unit": "µM"},
      {"measurement": "IC50", "setting": "[2]; [4]", "value": 16, "unit": "µM"}
    ]},
    {"compound": "C[C@@H]([C@H]1O[C@H](OCCCc2ccccc2)[C@H]2OC(C)(C)O[C@H]21)N1CCCC1", "note": "[Compound 24, Phenylpropyl 5,6-dideoxy 2,3-O-(1-methylethylidene)-5-pyrrolidinyl-β-L-gulofuranoside]", "values": [
      {"measurement": "IC50", "setting": "[1]; [3]", "value": "< 1", "unit": "µM"},
      {"measurement": "IC50", "setting": "[2]; [4]", "value": 225, "unit": "µM"}
    ]},
    {"compound": "C[C@@H](OCCCN(C)C)[C@H]1O[C@H](OCCCc2ccccc2)[C@H]2OC(C)(C)O[C@H]21", "note": "[Compound 26, Phenylpropyl 6-deoxy 2,3-O-(1-methylethylidene)-5-O-3'-(N'N'-dimethylamino-n-propyl)-α-D-mannofuranoside]", "values": [
      {"measurement": "IC50", "setting": "[1]; [3]", "value": "< 1", "unit": "µM"},
      {"measurement": "IC50", "setting": "[2]; [4]", "value": 65, "unit": "µM"}
    ]},
    {"compound": "C[C@@H](OCCN1CCCC1)[C@H]1O[C@H](OCCCc2ccccc2)[C@H]2OC(C)(C)O[C@H]21", "note": "[Compound 27, Phenylpropyl 6-deoxy 2,3-O-(1-methylethylidene)-5-O-(N'-ethylpyrrolidinyl)-α-D-mannofuranoside]", "values": [
      {"measurement": "IC50", "setting": "[1]; [3]", "value": 5.8, "unit": "µM"},
      {"measurement": "IC50", "setting": "[2]; [4]", "value": 148, "unit": "µM"}
    ]},
    {"compound": "CC1(C)O[C@@H]2[C@H](O1)[C@@H](OCCCCN1CCCC1)O[C@@H]2[C@H](O)CO", "note": "[Compound 29, 4'-(1-Pyrrolidinyl)butyl 2,3-O-(1-methylethylidene)-α-D-mannofuranoside]", "values": [
      {"measurement": "IC50", "setting": "[1]; [3]", "value": 26, "unit": "µM"},
      {"measurement": "IC50", "setting": "[2]; [4]", "value": 190, "unit": "µM"}
    ]},
    {"compound": "n-Nonyloxypropyl 2,3-O-(1-methylethylidene)-6-deoxy-6-aminothylpyrrolidinyl-α-D-mannofuranoside [Compound 7]", "values": [
      {"measurement": "IC50", "setting": "[1]", "value": 0.75, "unit": "µM"},
      {"measurement": "IC50", "setting": "[2]", "value": 105, "unit": "µM"}
    ]}
  ]
}
